This data set can be described thus: solvent given as SMILES.

Several values for one entry are separate records, joined by “and”; a condition that tells them apart may be missing. Equal entries are not always repeated.

Compound `CCCCCCCCCCC1(CCCCCCCCCC)c2cc(-c3nc4ccccc4s3)ccc2-c2ccc(N3C(=O)c4ccc5c6ccc7c8c(ccc(c9ccc(c4c59)C3=O)c86)C(=O)N(c3ccc4c(c3)C(CCCCCCCCCC)(CCCCCCCCCC)c3cc(-c5nc6ccccc6s5)ccc3-4)C7=O)cc21` came in with an absorption maximum (in ClCCl) of 528 nm.
In the case of `CC1=N/C(=C\c2ccc(N(C)C)cc2)C(=O)N1C`, the absorption maximum by setting is: (in C1CCCCC1) 405 nm; (in C1CCOC1) 419 nm; (in CC#N) 422 nm; (in CO) 435 nm; (in CS(C)=O) 434 nm; (in ClCCl) 428 nm. This compound also came in with an absorption maximum (in O) of 446 nm.
Turning to `CC1(C)C2=[N+](CCCCCC(=O)NCCNC(=O)CCCCCN3/C(=C/C=C/C=C/C=C/2)C(C)(C)c2cc(S(=O)(=O)[O-])ccc23)c2ccc(S(=O)(=O)[O-])cc21`, the absorption maximum (in CO) stood at 755 nm and the absorption maximum (in O) is given as 750 nm.
The compound `CC1(C)C(/C=C/C=C/C=C/C=C2\N(CCCCS(=O)(=O)[O-])c3ccc4ccccc4c3C2(C)C)=[N+](CCCCS(=O)(=O)[O-])c2ccc3ccccc3c21` yielded an absorption maximum (in O) of 780 nm.
Turning to `N#Cc1ccc(C#Cc2ccccc2C#N)cc1`, the absorption maximum (in ClC(Cl)Cl) turned out to be 297 nm.
Consider `COC(=O)/C=C/C=C/C1=CC2=C(c3c(C)cc(C)cc3C)c3cc(/C=C/C=C/C(=O)OC)cn3[B-](F)(F)[N+]2=C1`, for which the absorption maximum (in ClCCl) is on record as 633 nm.
The same measure, in the same setting: the value for `O=S1(=O)c2ccccc2C2(c3cc(-c4ccc(N(c5ccccc5)c5ccccc5)cc4)ccc3-c3ccc(-c4ccc(N(c5ccccc5)c5ccccc5)cc4)cc32)c2ccccc21` was 380 nm.
Where the note is “in C1CCOC1”, `FC(F)(F)C(F)(F)C(F)(F)C1=NC2=C(Oc3ccccc3)C=C3c4cc(Oc5ccccc5)c5nc(C(F)(F)C(F)(F)C(F)(F)F)nc6c(Oc7ccccc7)cc(c4c56)=C4C=C(Oc5ccccc5)C(=N1)C2C34` (stereo not drawn) showed an absorption maximum of 498 nm.
As for `CCN(CC)c1ccc(/N=N/c2cc3c(=O)[nH][nH]c(=O)c3cc2[N+](=O)[O-])c(NC(C)=O)c1`, the absorption maximum (in CC(=O)O) was determined as 532 nm, the absorption maximum (in CN(C)C=O) is reported as 518 nm and the absorption maximum (in CS(C)=O) was determined as 519 nm.
The compound `CCN1c2ccc(-c3cc(-c4ccccc4)[nH]n3)cc2Sc2cc(-c3cc(-c4ccccc4)[nH]n3)ccc21` gave an absorption maximum (in C1CCOC1) of 338 nm; an absorption maximum (in CC#N) of 338 nm; an absorption maximum (in CN(C)C=O) of 336 nm; an absorption maximum (in ClCCl) of 336 nm; an absorption maximum (in c1ccccc1) of 338 nm.
On to `Fc1ccc(C2=[N+]3C(=Nc4c5ccccc5c(-c5ccc(F)cc5)n4[B-]3(F)F)c3ccccc32)cc1`, for which the absorption maximum (in ClCCl) was found to be 713 nm.
Take `Cc1ccc(-n2c(-c3ccccc3[NH-])[nH+]c3c4ccccc4c4ccccc4c32)cc1`: the absorption maximum (in Cc1ccccc1) was determined as 363 nm.
Consider `N#Cc1ccc(N)c2nonc12`, for which the absorption maximum reads like this: (in C1COCCO1) 418 nm; (in CC#N) 421 nm; (in CCCCCC) 397 nm; (in CCO) 430 nm; (in Cc1ccccc1) 409 nm; (in ClCCl) 407 nm. This compound also returned an absorption maximum (in O) of 430 nm.
In turn, `CCN(CC)c1ccc2c(C)cc(=O)oc2c1` returned an absorption maximum (in C1CCCCC1) of 350 nm; an absorption maximum (in CC#N) of 367 nm; an absorption maximum (in CCCCCCCCO) of 373 nm; an absorption maximum (in CCCCCCO) of 373 nm; an absorption maximum (in CCCCO) of 374 nm; an absorption maximum (in CCCO) of 376 nm. Also, the absorption maximum was 376 nm and 435 nm and 373 nm (in CCO); 361 nm (in CCOC(C)=O); 384 nm (in OCC(O)CO).
`c1ccc2c(c1)OB1Oc3ccccc3-c3c1c-2c1c2c3-c3ccccc3OB2Oc2ccccc2-1`: the absorption maximum (in ClCCl) is 405 nm.
As to `CCOC(=O)/C(C)=C/C1=C(c2ccc(C)cc2)C2=Nc3c(-c4ccc(C)cc4)c(Br)c(-c4ccc(C)cc4)n3[B-](F)(F)[N+]2=C1c1ccc(C)cc1`, under “in ClC(Cl)Cl”, the absorption maximum stood at 661 nm.
For `Cc1c(-c2ccc(N3c4ccccc4C(C)(C)c4ccccc43)cc2)ncnc1-c1ccc(N2c3ccccc3C(C)(C)c3ccccc32)cc1`, the absorption maximum (in Cc1ccccc1) is on record as 367.5 nm.
Compound `COc1ccc(-c2nc(/C(C#N)=C/c3ccc(Cl)cc3)sc2-c2ccc(OC)cc2)cc1` came in with an absorption maximum (in CC#N) of 394 nm.
With `F[Si](c1ccccc1)(c1ccccc1)c1c2ccccc2cc2ccccc12`, the absorption maximum was found to be 393 nm (in C1CCOC1) and 394 nm (in ClC(Cl)Cl).
On to `CCCCCCOc1cc(/C=C/c2cc(OCCCCCC)c(/C=C/c3cc(OCCCCCC)c(C=C(C#N)C#N)cc3OCCCCCC)cc2OCCCCCC)c(OCCCCCC)cc1C=C(C#N)C#N`, for which, where the note is “in ClCCl”, the absorption maximum is 518 nm.
The same measure, in the same setting: the value for `CN(C)c1ccc(/C=C/c2nc(/C=C/c3ccc(N(c4ccccc4)c4ccccc4)cc3)cc(/C=C/c3ccc(N(c4ccccc4)c4ccccc4)cc3)n2)cc1` was 409 nm; that for `COc1ccc(-c2cnc3cccc(-c4ccccc4)n23)cc1` was 341 nm.
Same read-out and setting: the value for `c1csc(-c2ccc3c4ccc(-c5cccs5)cc4n(-c4cccs4)c3c2)c1` was 352 nm.
With `CC1(C)C(/C=C/C2=C(Cl)C(=C/C=C3/N(CCCCS(=O)(=O)[O-])c4ccc5ccccc5c4C3(C)C)/CCC2)=[N+](CCCCS(=O)(=O)[O-])c2ccc3ccccc3c21`, the absorption maximum (in CO) worked out at 820 nm.
Regarding `CCCCCCOc1ccc(/C=C/c2ccc(N(c3ccc(/C=C/c4ccc(OCCCCCC)cc4)cc3)c3ccc(-c4nc5ccccc5nc4-c4ccc(N(c5ccc(/C=C/c6ccc(OCCCCCC)cc6)cc5)c5ccc(/C=C/c6ccc(OCCCCCC)cc6)cc5)cc4)cc3)cc2)cc1`, the absorption maximum stood at 378 nm (in C1CCOC1) and 374 nm (in Cc1ccccc1).
`c1ccc(Nc2nc(Nc3ccccc3)nc(Nc3ccc4ccc5cccc6ccc3c4c56)n2)cc1`: the absorption maximum amounted to 342 nm (in CC#N), 342 nm (in CCCCOCCCC) and 340 nm (in CO).
Turning to `COc1ccc2c(=O)c3c([nH]c2c1)-c1ccccc1NC3(C)C`, the absorption maximum reads like this: (in C1CCOC1) 404 nm; (in CC#N) 415 nm; (in CCCCO) 424 nm; (in CCCO) 421 nm; (in CCO) 424 nm; (in CCOC(C)=O) 395 nm. Besides, the absorption maximum by setting is: (in CN(C)C=O) 421 nm; (in CO) 424 nm; (in CS(C)=O) 424 nm; (in Cc1ccccc1) 397 nm; (in ClC(Cl)(Cl)Cl) 404 nm; (in ClCCl) 403 nm. For the same compound, the absorption maximum reads like this: (in O) 383 nm; (in c1ccccc1) 402 nm.
Consider `Cc1cc2nc3[nH]c(=O)n(C)c(=O)c3nc2cc1C`, for which the absorption maximum (in CC#N) was 379 nm.
`CCCCCCCCn1c(=O)c2cc3cc4cc5c(=O)n(CCCCCCCC)c(=O)c5cc4cc3cc2c1=O`: the absorption maximum (in ClC(Cl)Cl) worked out at 421 nm.
In the case of `Cc1cc(-n2c3ccccc3c3cc4c(cc32)C2c3ccccc3C4c3ccccc32)c(C)cc1-c1nc(-c2ccccc2)nc(-c2ccccc2)n1`, the absorption maximum (in Cc1ccccc1) is given as 345 nm.
Take `N#CC1=C(c2ccc(-c3cccs3)s2)CCC1`: the absorption maximum is listed as 364 nm (in C1CCOC1); 362 nm (in CC#N); 360 nm (in CCCCCC); 366 nm (in CCO); 367 nm (in OCCOCCO); 368 nm (in c1ccncc1).
In turn, `CCOC(=O)c1c2c3c(ccc(Br)c3c3cc4c(cc13)[Si](C)(C)O[Si]4(C)C)N(C)C2=O` returned an absorption maximum (in CC#N) of 382 nm.
Take `Cn1c(=O)nc2n(C)c3ccccc3nc-2c1=O`: the absorption maximum runs as follows: (in CC1CCCO1) 460 nm; (in CC#N) 437 nm.
For `CC(C)[Si]1(C(C)C)c2cc(C=O)ccc2-c2ccc(N(c3ccccc3)c3ccccc3)cc21`, the absorption maximum was 403 nm (in C1CCCCC1); 392 nm (in CC#N); 396 nm (in CCO); 393 nm (in CCOCC); 398 nm (in CS(C)=O); 401 nm (in ClCCl). Under “in c1ccccc1”, this compound came in with an absorption maximum of 398 nm.
On to `COc1ccc2cc(C#CC3=C4CCc5ccccc5C4=[O+][B-](F)(F)O3)ccc2c1`, for which, for the setting “in ClCCl”, the absorption maximum is 457 nm.
`CCOC(=O)CN(CC(=O)OCC)c1ccc(-c2cc(-c3cccnc3)nc(-c3cccnc3)c2)cc1`: the absorption maximum is on record as 328 nm (in CC#N); 328 nm (in CCOC(C)=O); 334 nm (in CN(C)C=O); 338 nm (in CS(C)=O); 328 nm (in c1ccccc1).
Regarding `CNC(=O)[C@H](C)NC(=O)c1cccc2c1C#Cc1c(N)cccc1OCCCO2`, the absorption maximum amounted to 347 nm (in CC#N) and 345 nm (in ClCCl).
Where the note is “in ClC(Cl)Cl”, `COc1ccc2c3ccc(OC)cc3c3cc4c(C)cc(=O)oc4cc3c2c1` showed an absorption maximum of 365 nm.
Consider `CCCCCCCCCCOc1ccc(C#Cc2ccc(C#Cc3ccc(OCCCCCCCCCC)c(OCCCCCCCCCC)c3)c3nc4c5ccccc5c5ccccc5c4nc23)cc1OCCCCCCCCCC`, for which the absorption maximum is, setting by setting: (in C1CCOC1) 461 nm; (in Cc1ccccc1) 461 nm; (in ClCCl) 461 nm.
For the compound `COc1ccc(-c2c3ccccc3c(C#Cc3ccccc3)c3cc4ccccc4cc23)cc1`, where the note is “in ClCCl”, the absorption maximum turned out to be 523 nm.
Still for that read-out and setting: to `c1ccc(N(c2ccccc2)c2ccc(-c3ccc4c(c3)C3(c5ccccc5Sc5ccccc53)c3cc(-c5ccc(N(c6ccccc6)c6ccccc6)cc5)ccc3-4)cc2)cc1` belongs 375 nm.
Take `C(=C\c1nc2ccccc2[nH]1)/c1ccc(-c2nc3c4cccnc4c4ncccc4c3[nH]2)cc1`: the absorption maximum (in C1CCOC1) amounted to 381 nm, the absorption maximum (in CC#N) stood at 376 nm, the absorption maximum (in CO) was found to be 375 nm and the absorption maximum (in ClCCl) came to 382 nm.

(Values after the Deep4Chem optical property database.)
